# From patent publication US6642365B1, “Anti-(retro)viral conjugates of saccharides and acetamidino or guanidino compounds” (Yeda Research and Development Co. Ltd., priority 2001, dated 2003)
# Like-named read-outs stand apart in the source and are kept apart here.
# What was measured:
# [1] = system: equine infectious anemia virus (EIAV); experiment: Antiviral activity in EIAV-infected ED fibroblasts; format: cell-based; conditions: for EIAV replication in ED cells (FIG. 8): R3G at 12.5 and 25 μM, R4K at 50 and 100 μM, 10 pfu per cell
# Procedure: Both equine dermal fibroblasts (ED) and Equine Infectious Anemia Virus (EIAV), Wyoming isolate (Malmquist et al., 1973) were gifts from Profs. A. Yaniv and A. Gazit, from the Sackler Medical School of the Tel-Aviv University, Israel. ED cells were plated on plastic 6-well tissue culture plates (Nunclone) at density of […] per well in 2 ml of DMEM/10% FCS (fetal calf serum). The medium was removed after 12-20 hours and the cells were inoculated for 2 hours with 0.5 ml DMEM/10% FCS containing 5×10^6 pfu (plaque forming units) of EIAV and 10 μg/ml of polybrene (hexadimetrine bromide, Sigma) (Carpenter and Chesebro, 1989). Following the incubation, another 2.5 ml of DMEM/10% FCS was added to each well. […] Every […], 1.2 ml samples of the medium were collected and replaced with same amount of medium, containing radioactive uridine and the tested. The samples were clarified from cell debris by spinning at 12000 rpm for 5 minutes on the Eppendorf centrifuge. Viral particles from the clarified supernatants were collected by ultracentrifugation at 75000 rpm, 4° C. on the Beckman TL 100 centrifuge using TLA 100.2 rotor (Cheevers et al., 1977). The supernatants were carefully discarded and the pellet was resuspended in 200 μl of 1% SDS/5% Tritone X-100, mixed with 1 ml Ultima Gold scintillation liquid (Packard) and counted on LS 1701 Bruker scintillation counter. Typical duration of the experiment was 15 days; EIAV growth curves in the presence of various concentrations of the conjugates in the medium were obtained. Development of the cytopathic effect (cpe) in the infected ED cells was monitored by light microscopy.
# Equine infectious anemia virus (EIAV) of Wyoming strain is adapted to grow in equine dermal fibroblasts (ED), without damaging them with a titer of 1 μfu per cell (Malmquist virus). […] In the absence of inhibitors, EIAV proliferated in the ED cells reaching a plato 9-12 days after infection (FIG. 8). […] Development of cpe started 10-12 days after infection, reaching a maximum on days 15-17, followed by rapid cell death and exfoliation from the plastic bottom of the well.
# [2] = target: T1, CXCR4 (Homo sapiens, UniProt P61073); experiment: Inhibition of anti-CXCR4 mAb (12G5) binding, flow cytometry, PHA-activated PBMC; parameters: endogenous in cells; conditions: for IC50: read-out: IC50-12G5 PMBC
# T1 sequence (P61073 whole entry): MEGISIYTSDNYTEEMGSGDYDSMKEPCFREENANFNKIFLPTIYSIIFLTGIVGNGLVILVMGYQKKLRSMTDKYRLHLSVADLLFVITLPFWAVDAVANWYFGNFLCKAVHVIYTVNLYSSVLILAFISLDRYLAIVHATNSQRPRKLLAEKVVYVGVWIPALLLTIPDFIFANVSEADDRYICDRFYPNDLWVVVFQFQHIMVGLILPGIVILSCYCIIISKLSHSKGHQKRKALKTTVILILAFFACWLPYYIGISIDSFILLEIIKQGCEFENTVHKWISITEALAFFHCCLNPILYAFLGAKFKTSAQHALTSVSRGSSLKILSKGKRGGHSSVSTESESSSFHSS
# Procedure: (§1) Measurement of chemokine receptors CXCR4, CCR5 and the CD4 receptor on phytohemagglutinin (PHA)-activated PBMC was performed by flow cytometry analysis. Briefly, 0.5×10^6 cells were washed in ice-cold phosphate-buffered saline (PBS) and incubated for 30 minutes at 4÷C. with fluorescent labelled mAb 12G5 and 2D7 and Leu3a (Becton Dickinson, San Jose, Calif.) or with isotype control mAbs in the presence or absence of the test compound. Then, the cells were washed with ice-cold PBS and were fixed in PBS containing 1% formaldehyde. For each sample, 10,000 events were analysed in a FACScalibur™ system (Becton Dickinson). Data were acquired and analysed with CellQuest™ software (Becton Dickinson).
# [3] = system: HIV-1 NL4-3; experiment: Virus-binding assay, p24 antigen bound to MT-4 cells; format: cell-based; conditions: 1 hour at 37° C.; dose dependent
# Procedure: MT4 cells (5×10^5) were incubated with supernatant containing 1×10^5 pg of p24 antigen of wild type HIV-1 in the presence of different concentrations of the test compound. One hour after infection, cells were washed 3 times with PBS and p24 antigen bound to the cells was determined by a commercial ELISA test (Coulter, Spain).
# [4] = system: HIV-1 NL4-3 AMD3100-resistant; format: cell-based; conditions: for cross-resistance of NL4-3 AMD3100-resistant virus: relative to NL4-3
# Procedure: (§2) The cells were infected by incubation with different titers of the HIV-1 strains for 2 hrs at 37° C. in the presence or absence of the AAC of the invention. Then the cells were washed from the virus by centrifugation at 400 g and the supernatants were discarded. The cells were resuspended in culture medium, supplemented with different concentrations of the test compounds. The cells were allowed to proliferate for 5 days, the number of viable cells was quantified by a tetrazolium-based colorimetric method (CellTiter 96® AQueous One solution Cell Proliferation Assay, Promega).
# [5] = system: HIV-1 RF; experiment: Anti-HIV assay, MTT; format: cell-based
# Procedure: as §2
# [6] = target: T1, CXCR4; experiment: Inhibition of anti-CXCR4 mAb (12G5) binding, flow cytometry, SUP-T1 cells; parameters: endogenous in cells; conditions: for affinity for CXCR4: inhibition of 12G5 binding to SUP-T1 cells or PMBC
# Procedure: as §1
# [7] = system: TAR RNA; experiment: L-arginine-Amberlite affinity column elution of TAR RNA; format: binding, HIV-1; conditions: concentration that elutes 50% of TAR RNA from L-arginine-Amberlite affinity column
# [8] = system: HIV-1 AZT-resistant clinical isolate AOM; experiment: Anti-HIV assay, MTT; format: cell-based
# Procedure: as §2
# [9] = MTT assay, read-out: EC50 HIV-1 RF
Compound,"phenotype of EIAV-infected ED cells ([1]; 25 μM, day 13-15)","inhibition of cpe development ([1]; 25 and 50 μM, after 13-15 days)",EIAV replication in ED cells (FIG. 8) [1],"viral titer compared to control ([1]; added during cpe onset (day 12-13), read at day 15)",binding of 12G5 mAb to PHA-activated PBMC ([2]; 5 μM),IC50 [2] [µM],binding of HIV-1 NL4-3 to MT-4 cells [3],"EC50 ([4]; MTT assay, read-out: EC50 HIV-1 AMD 3100res) [µM]",cross-resistance of NL4-3 AMD3100-resistant virus [4] [fold],"EC50 [5, 9] [µM]","EC50 ([5]; range over HIV-1 RF strain, AOM clinical isolate and M-tropic Ba-L strain, read-out: EC50) [µM]",IC50 [6] [µM],affinity for CXCR4 [6],CE50 [7] [mM],EC50 [8] [µM]
Triargininamido-gentamicin conjugate [R3G],preserved normal fibroblast phenotype,noticeable inhibition of the cpe development,inhibited the viral growth,decreased at least twice,suppressed,2.7,inhibit the binding,> 133,> 9,35,16 to 35,7.7,high affinity,1.4,16
"N=C(N)NCCCC(N)C(=O)NCC1OC(OC2C(NC(=O)C(N)CCCNC(=N)N)CC(NC(=O)C(N)CCCNC(=N)N)C(OC3OC(CO)C(O)C(NC(=O)C(N)CCCNC(=N)N)C3O)C2O)C(O)C(O)C1O (stereo not drawn) [R4K, Tetraargininamido-kanamycin A conjugate]",,,inhibited the viral growth,,,2.2,inhibit the binding,,> 4,> 113,,3.7,high affinity,2.5,67
